Assay results as given in patent US8822455B2, “Fused aminodihydrothiazine derivatives” (Eisai R&D Management Co., Ltd., priority 2011, dated 2014).

Test system: Aβ42
Experiment: In vitro cellular assay (Aβ42): quantification of Aβ peptide in culture of neurons from rat fetus brain (ELISA)
Assay type: cell-based
Details: Primary cortical neuron, 72 h, rat primary cortical neurons (embryonic day 18 Wistar), 3 days after addition of compound, read-out: Cell IC50
Protocol: In vitro Cellular Assay (Aβ42):
Quantification of AβPeptide in Culture of Neurons from Rat Fetus Brain
(1) Rat Primary Neuronal Culture
Primary neuronal cultures were prepared from the cerebral cortex of embryonic day 18 Wistar rats (Charles River, UK). Specifically, the embryos were aseptically removed from pregnant rats under ether anesthesia. The brain was isolated from the embryo and immersed in HBSS (Sigma Aldrich #H9269) containing 10 mM HEPES (Gibco #15630-056). The cerebral cortex was collected from the isolated brain under a stereoscopic microscope. The cerebral cortex fragments collected were enzymatically treated in an enzyme solution containing 0.05% trypsin-EDTA solution (GIBCO, #25300) at 37° C. for 20 minutes to disperse the cells. The cells were then washed twice and then gently resuspended in Neurobasal medium (Gibco #21103) supplemented with 2% B27 supplement (GIBCO #17504-044), 0.5 mM L-glutamine (GIBCO #25030), 1×N2 (GIBCO #17502-048), 100 ug/ml Pen/Strep (GIBCO 15140-122) and 5% heat inactivated FCS (PAA #A15-701). The cell dispersion was filtered through a 40-μm nylon mesh (BD Falcon #352340) to remove the remaining cell mass, and thus a neuronal cell suspension was obtained. The neuronal cell suspension was diluted with the medium above and then plated in a volume of 100 μL/well at an initial cell density of 3.25×10^5 cells/ml in poly-D-lysine coated 96-well culture plate (Greiner #655940). The plated cells were cultured in the culture plate at 37° C. in 5% CO2-95% air for 24 hrs. The total amount of the medium was replaced with ‘assay Neurobasal medium’ (as above excluding heat inactivated FCS), and then the cells were cultured for a further five days.
The drug was added to the culture plate on Day 6 of culture as follows. 8 point compound serial dilutions were generated in DMSO at a concentration of ×1000 that of the final assay concentration (FAC). Compound solutions were then prepared by adding 999 ul of ‘Assay Neurobasal media’ (as described in above section) to 1 ul of DMSO compound stock. The total amount of the medium was removed from each of the cell plate wells, and 200 μL/well of compound solution was added. The final DMSO concentration was 0.1%.
The cells were cultured for either 1 or 3 days after addition of the compound for ABx-40 and ABx-42 assays respectively. 150 μl of sample medium was collected and used as the ELISA sample.
Human/Rat β Amyloid (42) ELISA Kit Wako (#290-62601) and Human/Rat β Amyloid (40) ELISA Kit Wako (#294-62501) from Wako Pure Chemical Industries, Ltd. were used for Aβ ELISA Aβ ELISA was carried out according to the protocols recommended by the manufacturers, described in the documents accompanying the kits. The results were shown as percentage of the control groups and IC50 values for each compound were determined using four parameter logistic fit model using the XLFIT5 software package (IDBS).

Row | Structure (SMILES) | IC50 [nM]
1 | C[C@H]1OC[C@]2(c3cc(-c4cccnc4)ccc3F)N=C(N)SC[C@H]12 [Example 4, (4aS,5R,7aS)-7a-(2-Fluoro-5-(pyridin-3-yl)phenyl)-5-methyl-4a,5,7,7a-tetrahydro-4H-furo[3,4-d][1,3]thiazin-2-amine] | 106
2 | C[C@H]1OC[C@]2(c3cc(-c4cncc(F)c4)ccc3F)N=C(N)SC[C@H]12 [Example 9, (4aS,5R,7aS)-7a-(2-Fluoro-5-(5-fluoropyridin-3-yl)phenyl)-5-methyl-4a,5,7,7a-tetrahydro-4H-furo[3,4-d][1,3]thiazin-2-amine] | 60
3 | C[C@H]1OC[C@]2(c3cc(-c4ccn[nH]4)ccc3F)N=C(N)SC[C@H]12 [Example 17, (4aS,5R,7aS)-7a-(2-Fluoro-5-(1H-pyrazol-5-yl)phenyl)-5-methyl-4a,5,7,7a-tetrahydro-4H-furo[3,4-d][1,3]-thiazin-2-amine] | 977
4 | NC1=N[C@@]2(c3cc(-c4cncnc4)c(F)cc3F)CO[C@H](CF)[C@H]2CS1 [Example 27, (4aS,5S,7aS)-7a-(2,4-Difluoro-5-(pyrimidin-5-yl)phenyl)-5-(fluoromethyl)-4a,5,7,7a-tetrahydro-4H-furo[3,4-d][1,3]thiazin-2-amine] | 59
5 | C[C@H]1OC[C@]2(c3cc(-c4cnccn4)ccc3F)N=C(N)SC[C@H]12 [Example 22, (4aS,5R,7aS)-7a-(2-fluoro-5-(pyrazin-2-yl)phenyl)-5-methyl-4a,5,7,7a-tetrahydro-4H-furo[3,4-d][1,3]thiazin-2-amine] | 55
